Results reported in patent publication US20180208605A1, “Substituted Aza Compounds as IRAK-4 Inhibitors” (AURIGENE DISCOVERY TECHNOLOGIES LIMITED, priority 2015, published 2018).
Structures can show the parent of a compound that is named as a salt.

Target: T1, recombinant IRAK-4 kinase (Homo sapiens, UniProt Q9NWZ3)
T1 construct: purchased Millipore, USA
T1 sequence (Q9NWZ3 1-460): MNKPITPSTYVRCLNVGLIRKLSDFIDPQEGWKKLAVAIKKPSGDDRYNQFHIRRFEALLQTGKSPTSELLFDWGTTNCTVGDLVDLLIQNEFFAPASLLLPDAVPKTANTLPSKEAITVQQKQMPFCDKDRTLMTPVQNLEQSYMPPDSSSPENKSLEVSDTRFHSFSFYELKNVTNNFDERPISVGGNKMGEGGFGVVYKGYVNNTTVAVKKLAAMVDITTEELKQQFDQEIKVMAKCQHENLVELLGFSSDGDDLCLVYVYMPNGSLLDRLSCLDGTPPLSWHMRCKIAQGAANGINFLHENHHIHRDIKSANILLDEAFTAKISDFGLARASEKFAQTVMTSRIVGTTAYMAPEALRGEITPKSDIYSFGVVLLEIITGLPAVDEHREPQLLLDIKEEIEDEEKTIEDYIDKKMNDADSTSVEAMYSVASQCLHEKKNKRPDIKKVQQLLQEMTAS
Experiment: IRAK-4 Biochemical Assay (TR-FRET, percent inhibition)
Details: TR-FRET, 20 μM ATP, 100 nM Biotin Histone H3; for inhibition at 0.1 µM: read-out: % inhibition of IRAK-4 @0.1 μM, compound at 0.1 μM; for inhibition at 1 µM: read-out: % inhibition of IRAK-4 @ 1 μM, compound at 1 μM
Procedure: Compounds were tested for their potential to inhibit IRAK-4 enzyme in a TR-FRET assay using recombinant IRAK-4 kinase from Millipore, USA. The assay buffer was 50 mM Tris-HCl pH 7.5, 20 mM MgCl2, 1 mM EGTA, 2 mM DTT, 3 mM MnCl2 and 0.01% Tween 20.5 ng of IRAK-4 kinase was used for the assay. After pre-incubation of enzyme with test compound for 30 minutes at room temperature, a substrate mixture containing 100 nM Biotin Histone H3 (Millipore, USA) and 20 μM ATP (Sigma, USA) was added and the reaction was incubated for 30 min. Post incubation, the reaction was stopped by the addition of stop mix containing 40 mM EDTA, 1 nM of Europium-Anti-Phospho-Histone H3 (Ser10) antibody (Perkin Elmer, USA) and 20 nM SureLight Allophycocyanin-Streptavidin (Perkin Elmer, USA). The fluorescence emission at 615 nm and 665 nm were measured at an excitation of 340 nm and the percent inhibition was estimated from the ratio of the fluorescence intensities [(F665/F615)×10000].

| Compound | inhibition at 0.1 µM | inhibition at 1 µM |
| --- | --- | --- |
| O=C(Nc1cc2sc(N3CCOCC3)nc2nc1C(F)(F)F)c1cccc(N2CCC(O)C2)n1 (stereo not shown) [Example 44, 6-(3-hydroxypyrrolidin-1-yl)-N-(2-morpholino-5-(trifluoromethyl)thiazolo[4,5-b]pyridin-6-yl)picolinamide] | 90% | 96% |
| CC(N)C(=O)O[C@H]1CCN(c2cccc(C(=O)Nc3cc4sc(N5CCOCC5)nc4nc3N3CCCCC3)n2)C1 (stereo partly drawn) [Example 57, (S)-1-(6-((2-morpholino-5-(piperidin-1-yl)thiazolo[4,5-b]pyridin-6-yl)carbamoyl)pyridin-2-yl)pyrrolidin-3-ylalaninate] | 97% | 98% |
| O=C(Nc1cc2sc(N3CCOCC3)nc2nc1N1CCC[C@@H](O)C1)c1cccc(N2CCCCCC2)n1 [Example 39, (R)-6-(azepan-1-yl)-N-(5-(3-hydroxypiperidin-1-yl)-2-morpholinothiazolo[4,5-b]pyridin-6-yl)picolinamide] | 83% | 98% |
| NCC(=O)O[C@H]1CCN(c2cccc(C(=O)Nc3cc4sc(N5CCOCC5)nc4nc3N3CCCCC3)n2)C1 [Example 36, (S)-1-(6-((2-morpholino-5-(piperidin-1-yl)thiazolo[4,5-b]pyridin-6-yl)carbamoyl)pyridin-2-yl)pyrrolidin-3-ylglycinate 2,2,2-trifluoroacetate] | 94% | 99% |
| O=C(Nc1cc2sc(N3CCOCC3)nc2nc1N1CCCCC1)c1cccc(N2CCO[C@@H](CO)C2)n1 [Example 33, (R)-6-(2-(hydroxymethyl)morpholino)-N-(2-morpholino-5-(piperidin-1-yl)thiazolo[4,5-b]pyridin-6-yl)picolinamide] | 95% | 97% |
| Cc1ccc(C(=O)Nc2cc3sc(N4CCOCC4)nc3nc2N2CCCCC2)nc1N1CC[C@H](O)C1 [Example 84, (S)-6-(3-hydroxypyrrolidin-1-yl)-5-methyl-N-(2-morpholino-5-(piperidin-1-yl)thiazolo[4,5-b]pyridin-6-yl)picolinamide] | 94% | 98% |
| O=C(Nc1cc2sc(N3CCOCC3)nc2nc1N1CCCCC1)c1cccc(-n2cnc(CO)c2)n1 [Example 67, 6-(4-(hydroxymethyl)-1H-imidazol-1-yl)-N-(2-morpholino-5-(piperidin-1-yl)thiazolo[4,5-b]pyridin-6-yl)picolinamide] | 100% | 101% |
| Cn1cc(-c2nc(C(=O)Nc3cc4sc(N5CCOCC5)nc4nc3N3CCCCC3)co2)cc(F)c1=O [Example 13, 2-(5-fluoro-1-methyl-6-oxo-1,6-dihydropyridin-3-yl)-N-(2-morpholino-5-(piperidin-1-yl)thiazolo[4,5-b]pyridin-6-yl)oxazole-4-carboxamide] | 98% | 98% |
| O=C(Nc1cc2sc(N3CCOCC3)nc2nc1N1CCCCC1)c1cccc(N2CCCC(O)C2)n1 (stereo not shown) [Example 55, 6-(3-hydroxypiperidin-1-yl)-N-(2-morpholino-5-(piperidin-1-yl)thiazolo[4,5-b]pyridin-6-yl)picolinamide] | 94% | 98% |
| Nc1cccc(-c2nc(C(=O)Nc3cc4oc(N5CCOCC5)nc4nc3N3CCCCC3)co2)n1 [Example 93, 2-(6-aminopyridin-2-yl)-N-(2-morpholino-5-(piperidin-1-yl)oxazolo[4,5-b]pyridin-6-yl)oxazole-4-carboxamide] | 87% | 93% |
| O=C(Nc1cc2sc(N3CCOCC3)nc2nc1N1CCCCC1)c1cccc(N2CC3CC2CO3)n1 (stereo not shown) [Example 45, 6-(2-oxa-5-azabicyclo[2.2.1]heptan-5-yl)-N-(2-morpholino-5-(piperidin-1-yl)thiazolo[4,5-b]pyridin-6-yl)picolinamide] | 95% | 97% |
| Cc1cc(-c2nc(C(=O)Nc3cc4sc(N5CCNCC5)nc4nc3N3CCCCC3)co2)ccn1 [Example 7, 2-(2-methylpyridin-4-yl)-N-(2-(piperazin-1-yl)-5-(piperidin-1-yl)thiazolo[4,5-b]pyridin-6-yl)oxazole-4-carboxamide hydrochloride] | 99% | 99% |
| Cc1cc(-c2nc(C(=O)Nc3cc4sc(N5CCOCC5)nc4nc3N3CCC(O)(CO)C3)co2)ccn1 (stereo not shown) [Example 9, N-(5-(3-hydroxy-3-(hydroxymethyl)pyrrolidin-1-yl)-2-morpholinothiazolo[4,5-b]pyridin-6-yl)-2-(2-methylpyridin-4-yl)oxazole-4-carboxamide hydrochloride] | 101% | 99% |
| Cc1cc(-c2ccc(C(=O)Nc3cc4sc(N5CCOCC5)nc4nc3N3CCC(O)(CO)CC3)o2)ccn1 [Example 2, N-(5-(4-hydroxy-4-(hydroxymethyl)piperidin-1-yl)-2-morpholinothiazolo[4,5-b]pyridin-6-yl)-5-(2-methylpyridin-4-yl)furan-2-carboxamide hydrochloride] | 98% | 99% |
| Cc1cc(-c2c[nH]c(C(=O)Nc3cc4sc(N5CCOCC5)nc4nc3N3CC[C@@H](O)C3)n2)ccn1 [Example 72, (R)-N-(5-(3-hydroxypyrrolidin-1-yl)-2-morpholinothiazolo[4,5-b]pyridin-6-yl)-4-(2-methylpyridin-4-yl)-1H-imidazole-2-carboxamide 2,2,2-trifluoroacetate] | 98% | 97% |
| Cc1cc(-c2ccc(C(=O)Nc3cc4sc(N5CCOCC5)nc4nc3N3CCCC(O)(CO)C3)o2)ccn1 (stereo not shown) [Example 5, N-(5-(3-hydroxy-3-(hydroxymethyl)piperidin-1-yl)-2-morpholinothiazolo[4,5-b]pyridin-6-yl)-5-(2-methylpyridin-4-yl)furan-2-carboxamide hydrochloride] | 98% | 99% |
| O=C(Nc1cc2sc(N3CCOCC3)nc2nc1N1CCCCC1)c1cccc(N2CC[C@@H](O)C2)n1 [Example 34, (R)-6-(3-hydroxypyrrolidin-1-yl)-N-(2-morpholino-5-(piperidin-1-yl)thiazolo[4,5-b]pyridin-6-yl)picolinamide] | 97% | 99% |
| O=C(Nc1cc2sc(N3CCOCC3)nc2nc1N1CCCCC1)c1cccc(N2CCC(CO)C2)n1 (stereo not shown) [Example 77, 6-(3-(hydroxymethyl)pyrrolidin-1-yl)-N-(2-morpholino-5-(piperidin-1-yl)thiazolo[4,5-b]pyridin-6-yl)picolinamide] | 98% | 99% |
| Nc1ccc(-c2cccc(C(=O)Nc3cc4sc(N5CCOCC5)nc4nc3N3CCCCC3)n2)cn1 [Example 75, 6′-amino-N-(2-morpholino-5-(piperidin-1-yl)thiazolo[4,5-b]pyridin-6-yl)-[2,3′-bipyridine]-6-carboxamide] | 98% | 78% |
| O=C(Nc1cc2sc(N3CCOCC3)nc2nc1N1CCCCC1)c1cccc(NCC2CCOCC2)n1 [Example 37, N-(2-morpholino-5-(piperidin-1-yl)thiazolo[4,5-b]pyridin-6-yl)-6-(((tetrahydro-2H-pyran-4-yl)methyl)amino)picolinamide] | 75% | 95% |
